Reference: the supplement of paper PMC10331698
± gives the standard deviation of the averaged measurements.

Columns and labels:
Test in all cases: level (log10 ratio to DMSO vehicle control); higher = higher biomarker level / cell amount than vehicle control
[1] = compound: FC(F)(F)C(F)(F)C(F)(F)CI [Heptafluorobutyl iodide]; settings: in DMSO
Experimental: (§1)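 BioMAP Diversity Plus panel of 12 human primary cell co-culture systems (3C, 4H, LPS, SAg, BT, BF4T, BE3C, CASM3C, HDF3CGF, KF3CT, MyoF, Mphg). Compounds were added 1 h before stimulation and left for 24 h (MyoF 48 h; BT 72 h for soluble read-outs or 6 d for IgG). Biomarkers were read by ELISA, cytotoxicity by SRB, PBMC viability and proliferation by Alamar Blue. Each well value was divided by the mean of 8 DMSO control wells on the same plate and log10 transformed; duplicate blinded samples were tested at 4 concentrations.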

[2] = compound: O=C(O)C=CC(F)(C(F)(F)F)C(F)(F)F [3-(Perfluoroisopropyl)-2-propenoic acid]; settings: in DMSO
Experimental: as §1

[3] = compound: FC(F)(F)C(F)(F)C(F)(F)C(F)(F)C(F)(F)C(F)(F)C(F)(F)I [1-Iodopentadecafluoroheptane]; settings: in DMSO
Experimental: as §1

[4] = compound: COC(=O)C(F)(F)C(F)(F)OC(F)(C(F)(F)F)C(F)(F)OC(F)=C(F)F [Methyl perfluoro(3-(1-ethenyloxypropan-2-yloxy)propanoate)]; settings: in DMSO
Experimental: as §1

[5] = compound: C=C(C)C(=O)OCCC(F)(F)C(F)(F)C(F)(F)C(F)(F)C(F)(F)C(F)(F)F [6:2 Fluorotelomer methacrylate]; settings: in DMSO
Experimental: as §1

[6] = compound: C=CC(=O)OCC(F)(F)C(F)(F)C(F)(F)COC(=O)C=C [1H,1H,5H,5H-Perfluoro-1,5-pentanediol diacrylate]; settings: 6700 nM; in DMSO
Experimental: as §1

[7] = compound: FC(F)(F)C(F)(F)C(F)(F)CC1CO1 [1H,1H-Heptafluorobutyl epoxide]; settings: in DMSO
Experimental: as §1

[8] = compound: NC(=O)C(F)(F)C(F)(F)C(F)(F)C(F)(F)C(N)=O [Octafluoroadipamide]; settings: in DMSO
Experimental: as §1

Test System | level (log10) ([1]; 6700 nM) | level (log10) ([1]; 20000 nM) | level (log10) ([1]; 60000 nM) | level (log10) ([2]; 6700 nM) | level (log10) ([2]; 20000 nM) | level (log10) ([2]; 60000 nM) | level (log10) ([3]; 6700 nM) | level (log10) ([3]; 20000 nM) | level (log10) ([4]; 6700 nM) | level (log10) ([4]; 20000 nM) | level (log10) ([5]; 6700 nM) | level (log10) ([5]; 20000 nM) | level (log10) ([5]; 60000 nM) | level (log10) [6] | level (log10) ([7]; 6700 nM) | level (log10) ([7]; 20000 nM) | level (log10) ([7]; 60000 nM) | level (log10) ([8]; 6700 nM) | level (log10) ([8]; 20000 nM) | level (log10) ([8]; 60000 nM)
SAg:PBMC Cytotoxicity | -0.015 ± 0.025 | 0.0035 ± 0.005 | 0.003 ± 0.0099 | -0.0035 ± 0.0078 | 0.0015 ± 0.0035 | -0.005 ± 0.017 | -0.0165 ± 0.028 | 0.0265 ± 0.026 | -0.0115 ± 0.025 | 0.028 ± 0.044 | -0.0305 ± 0.057 | 0.0085 ± 0.0021 | 0.015 ± 0.0099 | -0.111 ± 0.0035 | -0.0095 ± 0.0092 | -0.005 ± 0.013 | 0.0345 ± 0.011 | 0.004 ± 0.014 | -0.0095 ± 0.0021 | 0.01 ± 0.027
SAg:Proliferation | -0.056 ± 0.037 | 0.029 ± 0.028 | -0.072 ± 0.0042 | 0.009 ± 0.016 | -0.008 ± 0.037 | 0.008 ± 0.04 | 0.0055 ± 0.043 | -0.0105 ± 0.026 | -0.003 ± 0.018 | 0.0525 ± 0.057 | -0.027 ± 0.034 | -0.0435 ± 0.042 | -0.0375 ± 0.03 | -0.421 ± 0.035 | -0.0295 ± 0.059 | 0.017 ± 0.059 | 0.055 ± 0.054 | 0.022 ± 0.035 | -0.0255 ± 0.005 | 0.033 ± 0.0099
SAg:SRB | -0.007 ± 0.0099 | -0.001 ± 0.0042 | 0.002 ± 0.011 | -0.001 ± 0.0042 | -0.007 ± 0.025 | -0.0065 ± 0.028 | -0.007 ± 0.0042 | 0.0025 ± 0.0021 | 0.0035 ± 0.015 | 0.006 ± 0.0057 | 0 ± 0.0057 | -0.003 ± 0.0042 | -0.005 ± 0.0071 | -0.0015 ± 0.012 | 0.0065 ± 0.026 | -0.0065 ± 0.0092 | -0.0115 ± 0.011 | -0.011 ± 0.014 | -0.0065 ± 0.022 | -0.0025 ± 0.0064
